Measurements from patent publication US7816134B2, “Method of extensive culture of antigen-specific cytotoxic T cells” (Takara Bio Inc., priority 2000, dated 2010).
Like-named read-outs stand apart in the source and are kept apart here.

Tests used:
[1] = test system: HLA-A2.1-having EBV transformed B-cells (221A2.1); details: for Cytotoxic Activity (%) E/T Ratio 3 / Cytotoxic Activity (%) E/T Ratio 10 / Cytotoxic Activity (%) E/T Ratio 1 / Cytotoxic Activity (%) E/T Ratio 30: FluMPA2.1
[2] = test system: anti-influenza virus memory CTLs (FluMPA2.1); assay type: cell-based, human
[3] = test system: HLA-A2.1-having EBV transformed B-cells (221A2.1); details: for Cytotoxic Activity (%) E/T Ratio 1 / Cytotoxic Activity (%) E/T Ratio 3 / Cytotoxic Activity (%) E/T Ratio 10 / Cytotoxic Activity (%) E/T Ratio 2.5 / Cytotoxic Activity (%) E/T Ratio 5: FluMPA2.1
[4] = Example 2-3, sample 10 μg/ml during CTL induction +, during expansion +, peptide addition +
[5] = Example 2-3, sample 10 μg/ml during CTL induction +, during expansion +, peptide addition −
[6] = Example 2-6, sample during CTL induction −, during expansion + (10 μg/ml), peptide addition +
[7] = Example 2-6, sample during CTL induction −, during expansion + (10 μg/ml), peptide addition −
[8] = Example 2-7, sample 10 μg/ml during CTL induction +, during expansion +, peptide addition +
[9] = Example 2-7, sample 10 μg/ml during CTL induction +, during expansion +, peptide addition −
[10] = Example 2-7, sample 10 μg/ml during CTL induction +, during expansion −, peptide addition +
[11] = Example 2-7, sample 10 μg/ml during CTL induction +, during expansion −, peptide addition −
[12] = Example 2-6, sample during CTL induction −, during expansion + (10 μg/ml)
[13] = Example 1-2, sample 10 μg/ml during CTL induction +, during culture with IL-2 +, peptide addition +
[14] = Example 1-2, sample 10 μg/ml during CTL induction +, during culture with IL-2 +, peptide addition −
[15] = sample 10 μg/ml during CTL induction and during continuous culture, 10 to 14 days
[16] = Example 2-4, sample 10 μg/ml during CTL induction +, during expansion +, peptide addition +
[17] = Example 2-4, sample 10 μg/ml during CTL induction +, during expansion +, peptide addition −
[18] = Example 2-4, sample 10 μg/ml during CTL induction +, during expansion +
[19] = Example 1-3, sample 10 μg/ml during CTL induction +, during culture with IL-2 +, peptide addition +
[20] = Example 1-3, sample 10 μg/ml during CTL induction +, during culture with IL-2 +, peptide addition −
[21] = Example 1-5, sample during CTL induction −, during culture with IL-2 + (10 μg/ml), peptide addition +
[22] = Example 1-5, sample during CTL induction −, during culture with IL-2 + (10 μg/ml), peptide addition −
[23] = sample 10 μg/ml only during continuous culture
[24] = Example 1-4, sample 10 μg/ml during CTL induction +, during culture with IL-2 +, peptide addition +
[25] = Example 1-4, sample 10 μg/ml during CTL induction +, during culture with IL-2 +, peptide addition −

CC1OC(OC2C(OC3C(OC4C(OS(=O)(=O)O)C(C)OC(O)C4OS(=O)(=O)O)OC(C)C(OS(=O)(=O)O)C3OC3OC(C)C(OS(=O)(=O)O)C(OS(=O)(=O)O)C3OS(=O)(=O)O)OC(C)C(OS(=O)(=O)O)C2OC2OC(C)C(OS(=O)(=O)O)C(OC3OC(C)C(OS(=O)(=O)O)C(O)C3OS(=O)(=O)O)C2OS(=O)(=O)O)C(O)C(OS(=O)(=O)O)C1O (centres unmarked) [7-12SFd-F]
Cytotoxic Activity (%) E/T Ratio 3 [1, 4]: 67.0%
Cytotoxic Activity (%) E/T Ratio 10 [1, 4]: 93.7%
Cytotoxic Activity (%) E/T Ratio 3 [1, 5]: 2.8%
Cytotoxic Activity (%) E/T Ratio 10 [1, 5]: 0%
Cytotoxic Activity (%) E/T Ratio 1 [1, 6]: 14.1%
Cytotoxic Activity (%) E/T Ratio 3 [1, 6]: 20.1%
Cytotoxic Activity (%) E/T Ratio 10 [1, 6]: 41.7%
Cytotoxic Activity (%) E/T Ratio 30 [1, 6]: 64.6%
Cytotoxic Activity (%) E/T Ratio 1 [1, 7]: 2.7%
Cytotoxic Activity (%) E/T Ratio 3 [1, 7]: 0%
Cytotoxic Activity (%) E/T Ratio 10 [1, 7]: 1.0%
Cytotoxic Activity (%) E/T Ratio 30 [1, 7]: 3.5%
Cytotoxic Activity (%) E/T Ratio 1 [1, 8]: 9.4%
Cytotoxic Activity (%) E/T Ratio 3 [1, 8]: 23.4%
Cytotoxic Activity (%) E/T Ratio 10 [1, 8]: 44.2%
Cytotoxic Activity (%) E/T Ratio 30 [1, 8]: 82.1%
Cytotoxic Activity (%) E/T Ratio 1 [1, 9]: 0%
Cytotoxic Activity (%) E/T Ratio 3 [1, 9]: 0%
Cytotoxic Activity (%) E/T Ratio 10 [1, 9]: 0%
Cytotoxic Activity (%) E/T Ratio 30 [1, 9]: 1.6%
Cytotoxic Activity (%) E/T Ratio 1 [1, 10]: 14.0%
Cytotoxic Activity (%) E/T Ratio 3 [1, 10]: 34.6%
Cytotoxic Activity (%) E/T Ratio 10 [1, 10]: 50.4%
Cytotoxic Activity (%) E/T Ratio 30 [1, 10]: 83.5%
Cytotoxic Activity (%) E/T Ratio 1 [1, 11]: 6.7%
Cytotoxic Activity (%) E/T Ratio 3 [1, 11]: 6.5%
Cytotoxic Activity (%) E/T Ratio 10 [1, 11]: 9.3%
Cytotoxic Activity (%) E/T Ratio 30 [1, 11]: 9.8%
cytotoxic activity after expansion for 14 days (in words) ([1]; sample 10 μg/ml during CTL induction and during expansion, no EBV-B cells): maintained specific, high cytotoxic activity
Expansion Ratio ([2]; Example 2-3, sample 10 μg/ml during CTL induction +, during expansion +, 14 days): × 178
Expansion Ratio [2, 12]: × 310
Expansion Ratio ([2]; Example 2-7, sample 10 μg/ml during CTL induction +, during expansion +): × 258
Expansion Ratio ([2]; Example 2-7, sample 10 μg/ml during CTL induction +, during expansion −): × 283
Cytotoxic Activity (%) E/T Ratio 1 [3, 13]: 12.0%
Cytotoxic Activity (%) E/T Ratio 3 [3, 13]: 37.9%
Cytotoxic Activity (%) E/T Ratio 10 [3, 13]: 60.7%
Cytotoxic Activity (%) E/T Ratio 1 [3, 14]: 0.3%
Cytotoxic Activity (%) E/T Ratio 3 [3, 14]: 2.2%
Cytotoxic Activity (%) E/T Ratio 10 [3, 14]: 11.7%
cytotoxic activity after continuous culture (in words) [3, 15]: maintaining an antigen-specific cytotoxic activity

non-swellable alginic acid
Cytotoxic Activity (%) E/T Ratio 3 [1, 16]: 63.5%
Cytotoxic Activity (%) E/T Ratio 10 [1, 16]: 81.4%
Cytotoxic Activity (%) E/T Ratio 3 [1, 17]: 26.2%
Cytotoxic Activity (%) E/T Ratio 10 [1, 17]: 26.8%
Cytotoxic Activity (%) E/T Ratio 1 [1, 6]: 13.5%
Cytotoxic Activity (%) E/T Ratio 3 [1, 6]: 24.1%
Cytotoxic Activity (%) E/T Ratio 10 [1, 6]: 50.4%
Cytotoxic Activity (%) E/T Ratio 30 [1, 6]: 76.0%
Cytotoxic Activity (%) E/T Ratio 1 [1, 7]: 0.5%
Cytotoxic Activity (%) E/T Ratio 3 [1, 7]: 5.2%
Cytotoxic Activity (%) E/T Ratio 10 [1, 7]: 6.5%
Cytotoxic Activity (%) E/T Ratio 30 [1, 7]: 14.4%
Expansion Ratio [2, 18]: × 220
Expansion Ratio [2, 12]: × 335
Cytotoxic Activity (%) E/T Ratio 1 [3, 19]: 28.1%
Cytotoxic Activity (%) E/T Ratio 3 [3, 19]: 52.7%
Cytotoxic Activity (%) E/T Ratio 10 [3, 19]: 77.1%
Cytotoxic Activity (%) E/T Ratio 1 [3, 20]: 12.9%
Cytotoxic Activity (%) E/T Ratio 3 [3, 20]: 24.8%
Cytotoxic Activity (%) E/T Ratio 10 [3, 20]: 14.0%
Cytotoxic Activity (%) E/T Ratio 1 [3, 21]: 9.5%
Cytotoxic Activity (%) E/T Ratio 3 [3, 21]: 13.8%
Cytotoxic Activity (%) E/T Ratio 10 [3, 21]: 24.9%
Cytotoxic Activity (%) E/T Ratio 1 [3, 22]: 3.9%
Cytotoxic Activity (%) E/T Ratio 3 [3, 22]: 4.6%
Cytotoxic Activity (%) E/T Ratio 10 [3, 22]: 6.1%
cytotoxic activity after continuous culture (in words) [3, 23]: maintaining an antigen-specific cytotoxic activity

pectic acid
Cytotoxic Activity (%) E/T Ratio 3 [1, 16]: 47.0%
Cytotoxic Activity (%) E/T Ratio 10 [1, 16]: 69.8%
Cytotoxic Activity (%) E/T Ratio 3 [1, 17]: 11.6%
Cytotoxic Activity (%) E/T Ratio 10 [1, 17]: 7.3%
Cytotoxic Activity (%) E/T Ratio 1 [1, 6]: 18.2%
Cytotoxic Activity (%) E/T Ratio 3 [1, 6]: 33.3%
Cytotoxic Activity (%) E/T Ratio 10 [1, 6]: 64.2%
Cytotoxic Activity (%) E/T Ratio 30 [1, 6]: 87.8%
Cytotoxic Activity (%) E/T Ratio 1 [1, 7]: 2.3%
Cytotoxic Activity (%) E/T Ratio 3 [1, 7]: 4.1%
Cytotoxic Activity (%) E/T Ratio 10 [1, 7]: 8.2%
Cytotoxic Activity (%) E/T Ratio 30 [1, 7]: 15.9%
Expansion Ratio [2, 18]: × 160
Expansion Ratio [2, 12]: × 350
Cytotoxic Activity (%) E/T Ratio 2.5 [3, 24]: 32.0%
Cytotoxic Activity (%) E/T Ratio 5 [3, 24]: 49.4%
Cytotoxic Activity (%) E/T Ratio 2.5 [3, 25]: 3.4%
Cytotoxic Activity (%) E/T Ratio 5 [3, 25]: 5.5%
Cytotoxic Activity (%) E/T Ratio 10 [3, 21]: 16.5%
Cytotoxic Activity (%) E/T Ratio 10 [3, 22]: 0%
cytotoxic activity after continuous culture (in words) [3, 15]: effects for maintaining cytotoxic activity
cytotoxic activity after continuous culture (in words) [3, 23]: maintaining an antigen-specific cytotoxic activity

sodium chondroitin sulfate A
Cytotoxic Activity (%) E/T Ratio 3 [1, 16]: 56.7%
Cytotoxic Activity (%) E/T Ratio 10 [1, 16]: 89.0%
Cytotoxic Activity (%) E/T Ratio 3 [1, 17]: 0%
Cytotoxic Activity (%) E/T Ratio 10 [1, 17]: 5.3%
Cytotoxic Activity (%) E/T Ratio 1 [1, 6]: 8.0%
Cytotoxic Activity (%) E/T Ratio 3 [1, 6]: 18.7%
Cytotoxic Activity (%) E/T Ratio 10 [1, 6]: 36.6%
Cytotoxic Activity (%) E/T Ratio 30 [1, 6]: 67.6%
Cytotoxic Activity (%) E/T Ratio 1 [1, 7]: 6.3%
Cytotoxic Activity (%) E/T Ratio 3 [1, 7]: 5.6%
Cytotoxic Activity (%) E/T Ratio 10 [1, 7]: 7.5%
Cytotoxic Activity (%) E/T Ratio 30 [1, 7]: 18.8%
Expansion Ratio [2, 18]: × 280
Expansion Ratio [2, 12]: × 383
Cytotoxic Activity (%) E/T Ratio 10 [3, 19]: 75.5%
Cytotoxic Activity (%) E/T Ratio 10 [3, 20]: 21.1%
cytotoxic activity after continuous culture (in words) [3, 15]: continuous culture of CTLs having an antigen-specific cytotoxic activity can be carried out

sodium chondroitin sulfate B
Cytotoxic Activity (%) E/T Ratio 3 [1, 16]: 57.8%
Cytotoxic Activity (%) E/T Ratio 10 [1, 16]: 98.2%
Cytotoxic Activity (%) E/T Ratio 3 [1, 17]: 1.0%
Cytotoxic Activity (%) E/T Ratio 10 [1, 17]: 10.7%
Cytotoxic Activity (%) E/T Ratio 1 [1, 6]: 15.2%
Cytotoxic Activity (%) E/T Ratio 3 [1, 6]: 27.2%
Cytotoxic Activity (%) E/T Ratio 10 [1, 6]: 48.1%
Cytotoxic Activity (%) E/T Ratio 30 [1, 6]: 76.2%
Cytotoxic Activity (%) E/T Ratio 1 [1, 7]: 3.9%
Cytotoxic Activity (%) E/T Ratio 3 [1, 7]: 4.4%
Cytotoxic Activity (%) E/T Ratio 10 [1, 7]: 8.3%
Cytotoxic Activity (%) E/T Ratio 30 [1, 7]: 11.8%
Expansion Ratio [2, 18]: × 178
Expansion Ratio [2, 12]: × 383
Cytotoxic Activity (%) E/T Ratio 2.5 [3, 24]: 28.1%
Cytotoxic Activity (%) E/T Ratio 5 [3, 24]: 38.1%
Cytotoxic Activity (%) E/T Ratio 10 [3, 24]: 60.7%
Cytotoxic Activity (%) E/T Ratio 2.5 [3, 25]: 0%
Cytotoxic Activity (%) E/T Ratio 5 [3, 25]: 0%
Cytotoxic Activity (%) E/T Ratio 10 [3, 25]: 0.8%
Cytotoxic Activity (%) E/T Ratio 10 [3, 21]: 24.0%
Cytotoxic Activity (%) E/T Ratio 10 [3, 22]: 4.6%
cytotoxic activity after continuous culture (in words) [3, 15]: effects for maintaining cytotoxic activity
cytotoxic activity after continuous culture (in words) [3, 23]: maintaining an antigen-specific cytotoxic activity

sodium salt of sulfated fucose
Cytotoxic Activity (%) E/T Ratio 10 [1, 16]: 70.2%
Cytotoxic Activity (%) E/T Ratio 10 [1, 17]: 23.3%
Cytotoxic Activity (%) E/T Ratio 10 [1, 6]: 32.5%
Cytotoxic Activity (%) E/T Ratio 30 [1, 6]: 64.9%
Cytotoxic Activity (%) E/T Ratio 10 [1, 7]: 0%
Cytotoxic Activity (%) E/T Ratio 30 [1, 7]: 1.3%
Expansion Ratio [2, 18]: × 240
Expansion Ratio [2, 12]: × 448
Cytotoxic Activity (%) E/T Ratio 2.5 [3, 24]: 17.6%
Cytotoxic Activity (%) E/T Ratio 5 [3, 24]: 36.6%
Cytotoxic Activity (%) E/T Ratio 10 [3, 24]: 55.3%
Cytotoxic Activity (%) E/T Ratio 2.5 [3, 25]: 0%
Cytotoxic Activity (%) E/T Ratio 5 [3, 25]: 0%
Cytotoxic Activity (%) E/T Ratio 10 [3, 25]: 0.2%
Cytotoxic Activity (%) E/T Ratio 1 [3, 21]: 8.9%
Cytotoxic Activity (%) E/T Ratio 3 [3, 21]: 12.6%
Cytotoxic Activity (%) E/T Ratio 10 [3, 21]: 26.4%
Cytotoxic Activity (%) E/T Ratio 1 [3, 22]: 0%
Cytotoxic Activity (%) E/T Ratio 3 [3, 22]: 0.4%
Cytotoxic Activity (%) E/T Ratio 10 [3, 22]: 3.3%
cytotoxic activity after continuous culture (in words) [3, 15]: effects for maintaining cytotoxic activity
cytotoxic activity after continuous culture (in words) [3, 23]: maintaining an antigen-specific cytotoxic activity
